How the values were obtained:
[1] = test system: P. simplex bacteria (steroid responsive genome island, SRGI); assay: RNA-Seq screen of steroid treated P. simplex against solvent controls; type: cell-based, Pimelobacter simplex; settings: Log2 fold change vs solvent control
Text: (§1) In order to identify steroid binding Transcription Factors, a whole transcriptome RNA sequencing (RNA-Seq) screen was developed (FIG. 7). The growth of Pimelobacter simplex bacteria was profiled with respect to the starting inoculation density, solvent toxicity, and the addition of steroids (FIG. 16). […] P. simplex bacteria were screened against the steroid solvents ethanol (EtOH) and dimethyl sulfoxide (DMSO). […] Steroid growth curves were similarly performed using a starting OD of 0.005 and constant solvent dosing with titrations of steroids. […] P. simplex bacteria were grown in the presence of 700 μM testosterone, 21.88 μM progesterone, 87.50 μM estrone, 21.88 μM 17β-estradiol, 21.88 μM hydrocortisone, or 175.00 μM aldosterone concentrations were selected for comparison.
(§2) Using accession gene tags, genes were annotated for steroid relevant enzymes or transcription factors. […] Allosteric TF binding sequences are often palindromes and typically located near the start of its gene location in an intergenic space. With such a design, the allosteric TF can regulate itself or the open reading frame (ORF) near it in response to its effector molecule. […] Once identified, the TFs were cloned and recombinantly expressed for thorough characterization.
(§3) Cells were grown in 6 mL volumes of media at the OD, solvent, and steroid concentrations found from the growth curves in 14 mL polypropylene round-bottom tubes (Corning #352059) in technical duplicate. The same controls as in the steroid exposure growth curve were used for setting up RNA extraction samples. The cells were incubated at their corresponding temperature with continuous orbital shaking at 150 rpm until the end of lag-phase, mid-log phase, or stationary phase from the start of inoculation. Afterward, samples were removed and a 1:1 ratio of RNAprotect Bacteria Reagent (Qiagen #76506) was added followed by spinning down at 4° C. for 10 minutes at 4000 g. Supernatant was removed and the pellet re-suspended in 300 μL of RNAprotect and transferred into 2.0 mL Safe-Lock Tubes (Eppendorf #3101). The samples were then spun down once again at 4° C. for 10 minutes at 10000 g. Once the supernatant has been removed the samples were placed on ice and ready for RNA extraction. RNA extraction was done by Qiacube (Qiagen #9001292) set to the RNeasy Protect Bacteria Mini Kit protocol of bacterial cell pellet with enzymatic lysis. Tube A was prepared as described except with the addition of 150 mg/mL lysozyme (Sigma-Aldrich #L6876) and 20 mg/mL proteinase K (Roche #03115879001) all diluted in 1xTE buffer. RNA samples were subsequently quantified using Qubit RNA HS Assay Kit (Thermo Fisher Scientific #Q32852) and analyzed using a RNA 6000 Pico Kit (Agilent 5067-1513) in a 2100 Bioanalyzer (Agilent G2939A). RNA samples were either immediately used for RNA-Seq library preparation or stored long-term at −80° C.
(§4) RNA-Seq libraries were then produced from these samples using a slightly modified ScriptSeq v2 RNA-Seq Library Preparation Kit (Illumina 455A/22124) ensuring use of unique index primers through ScriptSeq Index PCR Primers (Sets 1-4) 48 rxns/set (Illumina #SSIP1234).

PinR = PinR (Nocardioides simplex (Pimelobacter simplex), UniProt A0A0A1DUF2); assay: Cross-reactivity assay of steroids using sensor 3; type: biochemical
Description: The cross-reactivity of progesterone regarding the different steroids was calculated with the following equation:
Description for a typical experiment, using a molar ratio of QD/TF/DNA=1/4/18.
50 uL of the sensor (QD/TF/DNA) was then splitted in 3×9 centrifuge tubes to which 10 uL of progesterone at the desired concentration is added. […] A 384 well plate was filled with 60 uL of each solution. The fluorescence intensity was monitored on a spectrofluorimeter from 535 nm to 800 nm exciting at 400 nm, equipped with a 450 nm long-pass filter in emission.

[2] = test system: steroid responsive genome island (SRGI); assay: Whole transcriptome RNA-Seq of steroid treated P. simplex; type: cell-based, Pimelobacter simplex; settings: P. simplex exposed to steroid vs solvent control, Log2 fold change
Text: as §1, §2, §3, §4

Sequence of PinR (A0A0A1DUF2 entry or part of it): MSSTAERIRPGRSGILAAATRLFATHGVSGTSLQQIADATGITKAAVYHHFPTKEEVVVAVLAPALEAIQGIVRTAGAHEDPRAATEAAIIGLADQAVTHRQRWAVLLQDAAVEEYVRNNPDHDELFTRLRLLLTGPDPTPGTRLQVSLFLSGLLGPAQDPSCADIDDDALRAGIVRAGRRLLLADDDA

**Q.** What does the source list for CC(=O)[C@H]1CC[C@H]2[C@@H]3CCC4=CC(=O)CC[C@]4(C)[C@H]3CC[C@]12C [PRG, Progesterone]?
**A.** upregulation of genes inside the SRGI (in words) [1]: upregulation of genes inside the SRGI were observed; IC50 (PinR): 59 ± 4 nM; P (slope of fit) (PinR; sensor 3, HEPES 1×): 1.31 ± 0.10; upregulation of genes inside the SRGI [2]: observed

Reference: patent US11360104B2, “Microbial-based biosensors” (TRUSTEES OF BOSTON UNIVERSITY, priority 2017, dated 2022)
